The target of this assay is T1, BRD9-GFP (Homo sapiens, UniProt Q9H8M2).
T1 construct: CHYSEL (2A cis-acting hydrolase element) remnant after GFP; mCherry is split off as a separate protein (C); expressed in transfected cells; host or cells: HEK293A cells (Invitrogen R70507), lentiviral transduction with pLenti6-BRD9-GFP-CHYSEL-mCherry, blasticidin selection
T1 sequence (Q9H8M2 1-597): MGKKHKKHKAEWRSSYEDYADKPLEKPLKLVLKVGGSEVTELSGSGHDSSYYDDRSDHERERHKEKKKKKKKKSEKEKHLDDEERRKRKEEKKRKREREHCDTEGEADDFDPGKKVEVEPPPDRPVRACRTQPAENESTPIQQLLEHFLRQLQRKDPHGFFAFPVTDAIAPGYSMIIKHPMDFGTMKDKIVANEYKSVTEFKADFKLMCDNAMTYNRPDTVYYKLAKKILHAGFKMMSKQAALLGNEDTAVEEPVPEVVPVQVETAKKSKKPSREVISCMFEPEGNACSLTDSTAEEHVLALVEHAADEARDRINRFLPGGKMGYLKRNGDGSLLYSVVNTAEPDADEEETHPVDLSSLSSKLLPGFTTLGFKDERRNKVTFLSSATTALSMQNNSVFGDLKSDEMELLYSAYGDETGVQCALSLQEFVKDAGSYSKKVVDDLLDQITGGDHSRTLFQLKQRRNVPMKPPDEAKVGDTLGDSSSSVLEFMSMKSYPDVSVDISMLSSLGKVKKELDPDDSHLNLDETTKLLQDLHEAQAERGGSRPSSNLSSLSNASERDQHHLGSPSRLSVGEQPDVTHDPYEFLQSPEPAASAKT
Kind of assay: BRD9-GFP protein abundance flow cytometry assay in HEK293A cells. In kind it is cell-based. As to conditions: HEK293A-BRD9-GFP-CHYSEL-mCherry cells; for BRD9 Deg Amax %: 24 h, % protein remaining at the concentration at which maximum degradation is seen; for DC50: 24 h at 37° C., 10-point 1:3 dilution, concentration at which 50% maximal degradation was observed. In a few lines:
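HEK293A cells stably express bicistronic BRD9-GFP-CHYSEL-mCherry and received 24 h treatment at 37° C with a 10-point, 3-fold dilution series from […], in 0.1% DMSO and duplicate. Median GFP/mCherry ratio of 5,000 single cells by flow cytometry, normalized to mCherry-only cells (0%) and DMSO (100%), gave DC50 and Amax (% protein remaining).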

Each structure is given as a SMILES string.

In general, DC50 refers to the concentration giving 50% degradation. A high value points to a less potent degrader. Turning to `COc1cc(-c2cn(C)c(=O)c3cnccc23)c(OC)cc1CN1CCC(OC2CCN(C(=O)COc3ccc(N4CCC(=O)NC4=O)cc3)CC2)CC1` [Compound E46, 1-(4-(2-(4-((1-(2,5-dimethoxy-4-(2-methyl-1-oxo-1,2-dihydro-2,7-naphthyridin-4-yl)benzyl)piperidin-4-yl)oxy)piperidin-1-yl)-2-oxoethoxy)phenyl)dihydropyrimidine-2,4(1H,3H)-dione], the “BRD9 Deg Amax %” value came out at 15.69% and half-maximal degradation (DC50) was put at 33 nM.
For `COc1cc(-c2cn(C)c(=O)c3cnccc23)c(OC)cc1CCN1CCC(OC2CCN(C(=O)c3ccc(Cl)c(N4CCC(=O)NC4=O)c3)CC2)CC1` [Compound A39, 1-(2-Chloro-5-(4-((1-(2,5-dimethoxy-4-(2-methyl-1-oxo-1,2-dihydro-2,7-naphthyridin-4-yl)phenethyl)piperidin-4-yl)oxy)piperidine-1-carbonyl)phenyl)dihydropyrimidine-2,4(1H,3H)-dione] the same measures were 16.72% and 21 nM.
In the same order, the values of `COc1cc(-c2cn(C)c(=O)c3cnccc23)c(OC)cc1CN1CCN(CC2CCN(C(=O)c3ccc(OC)c(N4CCC(=O)NC4=O)c3)CC2)CC1` [Compound A23, 1-(5-(4-((4-(2,5-Dimethoxy-4-(2-methyl-1-oxo-1,2-dihydro-2,7-naphthyridin-4-yl)benzyl)piperazin-1-yl)methyl)piperidine-1-carbonyl)-2-methoxyphenyl)dihydropyrimidine-2,4(1H,3H)-dione] are 10.64% and 16 nM.
In the same order, the values of `CCCCn1cc(-c2ccc(CN3CCC(OC4CCN(C(=O)c5ccc(OC)c(N6CCC(=O)NC6=O)c5)CC4)CC3)c(F)c2)c2ccncc2c1=O` [Compound E54, 1-(5-(4-((1-(4-(2-butyl-1-oxo-1,2-dihydro-2,7-naphthyridin-4-yl)-2-fluorobenzyl)piperidin-4-yl)oxy)piperidine-1-carbonyl)-2-methoxyphenyl)dihydropyrimidine-2,4(1H,3H)-dione] are 18.33% and 4 nM.
Consider `COc1cc(-c2cc(C)c(=O)n(C)c2)ccc1C(=O)N1CCC(OC2CCN(C(=O)c3ccc(OC)c(N4CCC(=O)NC4=O)c3)CC2)CC1` [Compound A2, 1-(5-(4-((1-(4-(1,5-Dimethyl-6-oxo-1,6-dihydropyridin-3-yl)-2-methoxybenzoyl)piperidin-4-yl)oxy)piperidine-1-carbonyl)-2-methoxyphenyl)dihydropyrimidine-2,4(1H,3H)-dione], for which the “BRD9 Deg Amax %” value came out at 13.39% and the DC50 was 63 nM.
In the same order, the values of `COc1cc(-c2cn(C)c(=O)c3cnccc23)ccc1OC1CCN(CC2CCN(C(=O)c3ccc(Cl)c(N4CCC(=O)NC4=O)c3)CC2)CC1` [Compound A10, 1-(2-Chloro-5-(4-((4-(2-methoxy-4-(2-methyl-1-oxo-1,2-dihydro-2,7-naphthyridin-4-yl)phenoxy)piperidin-1-yl)methyl)piperidine-1-carbonyl)phenyl)dihydropyrimidine-2,4(1H,3H)-dione] are 18.93% and 2 nM.
For `CCCCn1cc(-c2cc(OC)c(CN3CCC(OC4CCN(CCn5cccc(CN6CCC(=O)NC6=O)c5=O)CC4)CC3)c(OC)c2)c2ccncc2c1=O` [Compound D2, 1-((1-(2-(4-((1-(4-(2-butyl-1-oxo-1,2-dihydro-2,7-naphthyridin-4-yl)-2,6-dimethoxybenzyl)piperidin-4-yl)oxy)piperidin-1-yl)ethyl)-2-oxo-1,2-dihydropyridin-3-yl)methyl)dihydropyrimidine-2,4(1H,3H)-dione], the “BRD9 Deg Amax %” value was determined as 13.05% and the DC50 was 15 nM.
In the same order, the values of `COc1cc(-c2cn(C)c(=O)c(C)c2C)ccc1CN1CCN(CC2CCN(C(=O)c3ccc(Cl)c(N4CCC(=O)NC4=O)c3)CC2)CC1` [Compound A14, 1-(2-Chloro-5-(4-((4-(2-methoxy-4-(1,4,5-trimethyl-6-oxo-1,6-dihydropyridin-3-yl)benzyl)piperazin-1-yl)methyl)piperidine-1-carbonyl)phenyl)dihydropyrimidine-2,4(1H,3H)-dione] are 33.06% and 3 nM.
For `COc1cc(-c2cn(C)c(=O)c3cnccc23)c(OC)cc1CN1CCC(OC2CCN(C(=O)c3ccc(C)c(N4CCC(=O)NC4=O)c3)CC2)CC1` [Compound A29, 1-(5-(4-((1-(2,5-Dimethoxy-4-(2-methyl-1-oxo-1,2-dihydro-2,7-naphthyridin-4-yl)benzyl)piperidin-4-yl)oxy)piperidine-1-carbonyl)-2-methylphenyl)dihydropyrimidine-2,4(1H,3H)-dione] the same measures were 15.75% and 34 nM.
In the same order, the values of `CCCCn1cc(-c2cc(OC)c(CN3CCC(OC4CCN(CCn5cccc(CN6CCC(=O)NC6=O)c5=O)CC4)CC3)cc2OC)c2ccncc2c1=O` [Compound D1, 1-((1-(2-(4-((1-(4-(2-butyl-1-oxo-1,2-dihydro-2,7-naphthyridin-4-yl)-2,5-dimethoxybenzyl)piperidin-4-yl)oxy)piperidin-1-yl)ethyl)-2-oxo-1,2-dihydropyridin-3-yl)methyl)dihydropyrimidine-2,4(1H,3H)-dione] are 14.78% and 16 nM.
Turning to `CCCn1cc(-c2cc(F)c(CCN3CCC(OC4CCN(C(=O)c5ccc(OC)c(N6CCC(=O)NC6=O)c5)CC4)CC3)c(F)c2)c(C)c(C)c1=O` [Compound E12, 1-(5-(4-((1-(4-(4,5-dimethyl-6-oxo-1-propyl-1,6-dihydropyridin-3-yl)-2,6-difluorophenethyl)piperidin-4-yl)oxy)piperidine-1-carbonyl)-2 methoxyphenyl)dihydropyrimidine-2,4(1H,3H)-dione], the “BRD9 Deg Amax %” value amounted to 33.47% and the DC50 is 30 nM.
In the same order, the values of `CCCCn1cc(-c2cc(F)c(CN3CCC(OC4CCN(C(=O)c5ccc(OC)c(N6CCC(=O)NC6=O)c5)CC4)CC3)c(F)c2)c2ccncc2c1=O` [Compound E33, 1-(5-(4-((1-(4-(2-butyl-1-oxo-1,2-dihydro-2,7-naphthyridin-4-yl)-2,6-difluorobenzyl)piperi-din-4-yl)oxy)piperi-dine-1-carbonyl)-2-methoxyphenyl)di-hydro-pyrimidine-2,4(1H,3H)-dione] are 14.29% and 5 nM.
Consider `CCCCn1cc(-c2ccc(OC3CCN(CC4CCN(C(=O)c5ccc(OC)c(N6CCC(=O)NC6=O)c5)CC4)CC3)cc2)c2ccncc2c1=O` [Compound E42, 1-(5-(4-((4-(4-(2-butyl-1-oxo-1,2-dihydro-2,7-naphthyridin-4-yl)phenoxy)piperidin-1-yl)methyl)piperidine-1-carbonyl)-2-methoxyphenyl)dihydropyrimidine-2,4(1H,3H)-dione], for which the “BRD9 Deg Amax %” value was found to be 17.34% and half-maximal degradation (DC50) was put at 4 nM.
For `CCCCn1cc(-c2cc(F)c(O[C@@H]3CCN(CCC4CCN(C(=O)c5ccc(OC)c(N6CCC(=O)NC6=O)c5)CC4)C[C@H]3F)c(F)c2)c2ccncc2c1=O` [Compound E14, 1-(5-(4-(2-((3R,4R)-4-(4-(2-butyl-1-oxo-1,2-dihydro-2,7-naphthyridin-4-yl)-2,6-difluorophenoxy)-3-fluoropiperidin-1-yl)ethyl)piperidine-1-carbonyl)-2-meth-oxyphenyl)dihydro-pyrimidine-2,4(1H,3H)-dione] the same measures were 18.10% and 1 nM.
For `CCCCn1cc(-c2cc(OC)c(CCN3CCC(OC4CCN(CCn5cccc(CN6CCC(=O)NC6=O)c5=O)CC4)CC3)cc2OC)c2ccncc2c1=O` [Compound D3, 1-((1-(2-(4-((1-(4-(2-butyl-1-oxo-1,2-dihydro-2,7-naphthyridin-4-yl)-2,5-dimethoxyphenethyl)piperidin-4-yl)oxy)piperidin-1-yl)ethyl)-2-oxo-1,2-dihydropyridin-3-yl)methyl)dihydropyrimidine-2,4(1H,3H)-dione] the same measures were 17.62% and 47 nM.
Take `COc1ccc(C(=O)N2CCC(OC3CCN(C(=O)/C=C/c4c(OC)cc(-c5cn(C)c(=O)c6cnccc56)cc4OC)CC3)CC2)cc1N1CCC(=O)NC1=O` [Compound A31, (E)-1-(5-(4-((1-(3-(2,6-dimethoxy-4-(2-methyl-1-oxo-1,2-dihydro-2,7-naphthyridin-4-yl)phenyl)acryloyl)piperidin-4-yl)oxy)piperidine-1-carbonyl)-2-methoxyphenyl)dihydropyrimidine-2,4(1H,3H)-dione]: the “BRD9 Deg Amax %” value came to 15.11% and it took 10 nM to reach half-maximal degradation (DC50).

(Values after US20220315578A1, “BRD9 BIFUNCTIONAL DEGRADERS AND THEIR METHODS OF USE” (NOVARTIS AG, priority 2019, published 2022).)
